Converted amounts (≈) assume the structure as drawn.
What was measured:
[1] = target: T1, PBP1a from Acinetobacter baumannii (ATCC 19606) (Acinetobacter baumannii, UniProt A0ABX6CK30); experiment: Bocillin-FL fluorescence polarization competition binding, A. baumannii PBP1a; details: fluorescence polarization competition binding assay using Bocillin-FL; read-out: A. baumannii PBP1a Potency
T1 sequence (A0ABX6CK30 1-851): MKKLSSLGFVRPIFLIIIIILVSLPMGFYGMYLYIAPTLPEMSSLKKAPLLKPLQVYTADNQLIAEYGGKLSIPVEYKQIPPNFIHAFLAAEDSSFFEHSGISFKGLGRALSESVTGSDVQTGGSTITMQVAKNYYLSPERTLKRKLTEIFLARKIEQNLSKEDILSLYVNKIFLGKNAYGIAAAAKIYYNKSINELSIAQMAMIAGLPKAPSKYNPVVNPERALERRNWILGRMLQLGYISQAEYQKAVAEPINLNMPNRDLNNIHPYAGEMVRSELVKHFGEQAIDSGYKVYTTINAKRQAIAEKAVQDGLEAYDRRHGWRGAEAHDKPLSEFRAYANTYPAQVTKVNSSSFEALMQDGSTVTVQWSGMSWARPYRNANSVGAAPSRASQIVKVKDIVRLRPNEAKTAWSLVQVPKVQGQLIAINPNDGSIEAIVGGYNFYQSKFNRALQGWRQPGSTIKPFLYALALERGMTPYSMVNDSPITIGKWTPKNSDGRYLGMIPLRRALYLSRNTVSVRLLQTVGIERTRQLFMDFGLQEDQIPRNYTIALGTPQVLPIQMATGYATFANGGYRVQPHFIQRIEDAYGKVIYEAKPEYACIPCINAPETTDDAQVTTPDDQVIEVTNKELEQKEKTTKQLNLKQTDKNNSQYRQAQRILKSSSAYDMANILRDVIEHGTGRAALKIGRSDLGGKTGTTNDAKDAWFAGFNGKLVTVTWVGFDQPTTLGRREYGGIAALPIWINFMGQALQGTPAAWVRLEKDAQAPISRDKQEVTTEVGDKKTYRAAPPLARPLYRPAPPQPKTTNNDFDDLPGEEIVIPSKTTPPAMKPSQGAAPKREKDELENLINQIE
From the text: To determine the ability of boronic acid-based test PBP inhibitors to bind Penicillin Binding Proteins (PBPs), Bocillin-FL (fluorescently-labeled penicillin V; ThermoFisher Scientific) was used in a fluorescence polarization (FP) competition binding assay to assess inhibitor binding to PBP3 from Escherichia coli (K-12), PBP3 from Pseudomonas aeruginosa (PAO1), PBP1a and PBP3 from Acinetobacter baumannii (ATCC 19606), and PBP2 from Neisseria gonorrhoeae (FA19). PBPs were cloned and purified as described previously (E. coli PBP3, King, D. T, et al., ACS Infectious Diseases 2015, 1, 175-184; P. aeruginosa PBP3, Han et. al., PNAS 2010, 107 (51), 22002-22007; A. baumannii PBPs, Penwell et. al., Antimicrob. Agents Chemother. 2015, 59 (3), 1680-1689; N. gonorrhoeae PBP2, Singh et. al., J. Biol. Chem. 2019, 294 (38), 14020-14032). To establish assay conditions for competition binding, enzyme titration/saturation binding experiments were initially performed. Bocillin-FL was prepared at 0.2 μM in a buffer comprised of 50 mM Hepes (pH 8.0), 300 mM NaCl and 10% (v/v) glycerol for reactions with E. coli, P. aeruginosa and N. gonorrhoeae PBPs, and 25 mM Tris (pH 8.0), 200 mM NaCl, 10% (v/v) glycerol and 0.005% (v/v) Tween 20 for reactions with A. baumannii PBPs. Saturation binding was performed by mixing 40 μl of PBP solutions ranging in concentrations from 0-24 μM with 40 μl of the 0.2 μM Bocillin-FL solution, in individual wells of a black 384-well microplate. FP was measured immediately upon mixing (Excitation, 490 nm; Emission, 520 nm; g-factor, 0.96), using a Cytation3 (BioTek) microplate reader and measured continuously for up to 120 minutes. The FP response stabilized after 15 minutes for P. aeruginosa and A. baumannii PBP3, 30 minutes for E. coli PBP3 and A. baumannii PBP1a, and less than 1 minute for N. gonorrhoeae PBP2. […] The competition binding assay (80 μl final volume) was validated using beta-lactams and PBPs at final concentrations of: 1.5 μM for E. coli PBP3; 0.75 μM for P. aeruginosa PBP3; 1 μM for A. baumannii PBP1a; 0.2 μM for A. baumannii PBP3; and 0.25 μM for N. gonorrhoeae PBP2. Bocillin-FL was at 0.1 μM (0.05 μM with A. baumannii PBP1a) and beta-lactam concentrations ranged from 0-1,000 μM. E. coli PBP3 was incubated with increasing concentrations of ampicillin in a black 384-well microplate (Corning) for 30 minutes. P. aeruginosa PBP3 was incubated for 15 minutes with aztreonam, whereas A. baumannii PBP1a and PBP3 were incubated for 15 minutes with meropenem, and then Bocillin-FL was added followed immediately by the FP measurement for up to 60 minutes. […] The beta-lactam potency was reported as the concentration of beta-lactam required to reduce the amount of PBP bound-Bocillin-FL by 50% (EC50). […] The EC50 of aztreonam was determined to be <0.5 μM for P. aeruginosa PBP3. […] Binding assays for boronic acid PBP inhibitors were performed in an identical fashion for the respective PBPs.

A. baumannii ATCC 17978 = experiment: microbe, parasite or virus in culture; assay type: cell-based; details: Acinetobacter baumannii, ATCC17978, read-out: MIC, A. baumannii ATCC 17978
P. aeruginosa ATCC 35151 = experiment: microbe, parasite or virus in culture; assay type: cell-based; details: Pseudomonas aeruginosa, ATCC35151, read-out: Minimum inhibitory concentration, P. aeruginosa ATCC 35151
[2] = tested on: P. aeruginosa (ΔmexAB-oprM); experiment: Broth microdilution MIC in iron-depleted CAMHB (IDM); assay type: cell-based; details: Pseudomonas aeruginosa; iron-depleted CAMHB (IDM); […]; read-out: Minimum inhibitory concentration, P. aeruginosa ΔmexAB-oprM
P. aeruginosa CDC-0090 = experiment: microbe, parasite or virus in culture; assay type: cell-based; details: Pseudomonas aeruginosa, CDC0090, read-out: Minimum inhibitory concentration, P. aeruginosa CDC-0090
A. baumannii 1258916 = experiment: microbe, parasite or virus in culture; assay type: cell-based, Acinetobacter baumannii; details: Acinetobacter baumannii, 1258916, read-out: MIC, A. baumannii 1258916
A. baumannii CDC-0045 = experiment: microbe, parasite or virus in culture; assay type: cell-based; details: Acinetobacter baumannii, CDC0045, read-out: MIC, A. baumannii CDC-0045
A. baumannii CDC-0083 = experiment: microbe, parasite or virus in culture; assay type: cell-based; details: Acinetobacter baumannii, CDC0083, read-out: MIC, A. baumannii CDC-0083

SMILES | IC50 [1] [µM] | MIC (A. baumannii ATCC 17978) [µg/mL] | MIC (P. aeruginosa ATCC 35151) [µg/mL] | MIC [2] [µg/mL] | MIC (P. aeruginosa CDC-0090) [µg/mL] | MIC (A. baumannii 1258916) [µg/mL] | MIC (A. baumannii CDC-0045) [µg/mL] | MIC (A. baumannii CDC-0083) [µg/mL]
O=C(O)c1c(F)ccc2c1OB(O)[C@@H](NC(=O)C(NC(=O)N1CCN(Cc3ccc(O)c(O)c3Cl)C(=O)C1=O)c1ccc(P(=O)(O)O)c(F)c1)C2 (stereo partly drawn) [Example 23, (3R)-3-(2-(4-(2-chloro-3,4-dihydroxybenzyl)-2,3-dioxopiperazine-1-carboxamido)-2-(3-fluoro-4-phosphonophenyl)acetamido)-7-fluoro-2-hydroxy-3,4-dihydro-2H-benzo[e][1,2]oxaborinine-8-carboxylic acid] | > 250 | < 1 | < 1 | < 1 | 8 to 16 (≈ 10.6 to 21.3 µM) | < 1 | < 1 | < 1
O=C(O)c1c(F)ccc2c1OB(O)[C@@H](NC(=O)C(NC(=O)N1CCN(Cc3cc(F)c(O)c(O)c3Cl)C(=O)C1=O)c1ccc(P(=O)(O)O)cc1)C2 (stereo partly drawn) [Example 45, (3R)-3-(2-(4-(2-chloro-5-fluoro-3,4-dihydroxybenzyl)-2,3-dioxopiperazine-1-carboxamido)-2-(4-phosphonophenyl)acetamido)-7-fluoro-2-hydroxy-3,4-dihydro-2H-benzo[e][1,2]oxaborinine-8-carboxylic acid] | > 250 | < 1 | < 1 | < 1 | < 1 | < 1 | < 1 | < 1

— US20240270762A1, “PENICILLIN-BINDING PROTEIN INHIBITORS” (priority 2021, published 2024)
